Experimental data reported in patent US20260207602A1, “EGFR INHIBITORS” (Blueprint Medicines Corporation, priority 2022, published 2026).

Columns and labels:
EGFR (d746-750) = target: T1, EGFR (d746-750) (Homo sapiens, UniProt P00533, DEL746-750); assay: Biochemical EGFR inhibition assay (Caliper mobility shift), EGFR (d746-750); details: biochemical Caliper mobility shift assay, EGFR Exon 19-del enzyme; read-out: Enz EGFR Exon 19-del IC50
T1 construct: purchased SignalChem E10-122JG
Procedure, shortened: (§1)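 Kinase activity measured as phosphorylation of 2.5 µM 5-FAM-labelled peptide substrate in 100 mM HEPES pH 7.5, 10 mM MgCl2, 0.015% Brij-35, 1 mM DTT, 1.0% DMSO, at 1.0 mM ATP or ATP Km. Run at 25 °C to 10–20% conversion, stopped with EDTA; product resolved by mobility shift, apparent IC50 from percent activity vs log concentration.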

[1] = target: intracellular phosphorylation of EGFR (Tyr1068) in PC-9 cells (Homo sapiens, UniProt P00533, DEL746-750); assay: PC-9 pEGFR AlphaLISA assay; format: cell-based; details: 4 hours incubation, read-out: Phos EGFR PC9 IC50
intracellular phosphorylation of EGFR (Tyr1068) in PC-9 cells, sequence (P00533 with tags, fused parts or gaps DEL746-750): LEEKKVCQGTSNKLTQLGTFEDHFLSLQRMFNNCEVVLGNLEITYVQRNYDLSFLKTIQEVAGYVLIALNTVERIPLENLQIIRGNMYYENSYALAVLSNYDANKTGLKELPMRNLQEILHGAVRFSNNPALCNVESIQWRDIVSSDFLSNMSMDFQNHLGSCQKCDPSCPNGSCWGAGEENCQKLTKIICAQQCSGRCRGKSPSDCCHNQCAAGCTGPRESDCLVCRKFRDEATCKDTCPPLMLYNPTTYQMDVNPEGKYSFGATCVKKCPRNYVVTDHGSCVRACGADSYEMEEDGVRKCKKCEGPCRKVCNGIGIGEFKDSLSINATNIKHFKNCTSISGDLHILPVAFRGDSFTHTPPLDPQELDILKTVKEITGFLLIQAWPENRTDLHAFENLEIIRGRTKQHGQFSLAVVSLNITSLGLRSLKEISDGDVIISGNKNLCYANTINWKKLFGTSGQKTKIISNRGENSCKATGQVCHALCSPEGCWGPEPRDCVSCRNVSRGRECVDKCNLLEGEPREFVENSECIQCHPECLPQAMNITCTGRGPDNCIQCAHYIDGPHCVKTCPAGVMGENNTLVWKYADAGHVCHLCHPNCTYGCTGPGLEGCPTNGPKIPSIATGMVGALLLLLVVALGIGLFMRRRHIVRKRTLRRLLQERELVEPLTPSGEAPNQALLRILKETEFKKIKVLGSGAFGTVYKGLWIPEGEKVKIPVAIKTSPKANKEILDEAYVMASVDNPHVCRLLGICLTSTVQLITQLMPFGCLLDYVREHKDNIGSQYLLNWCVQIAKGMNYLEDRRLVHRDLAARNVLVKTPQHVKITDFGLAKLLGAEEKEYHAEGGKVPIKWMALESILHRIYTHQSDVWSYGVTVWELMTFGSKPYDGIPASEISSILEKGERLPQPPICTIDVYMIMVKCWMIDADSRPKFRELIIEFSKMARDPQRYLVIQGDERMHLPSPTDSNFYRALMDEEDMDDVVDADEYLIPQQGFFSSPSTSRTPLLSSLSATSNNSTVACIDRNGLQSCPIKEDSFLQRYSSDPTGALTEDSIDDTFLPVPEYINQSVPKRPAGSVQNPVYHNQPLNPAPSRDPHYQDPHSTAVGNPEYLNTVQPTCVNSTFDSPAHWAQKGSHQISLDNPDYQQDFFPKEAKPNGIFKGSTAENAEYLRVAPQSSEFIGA
Procedure, shortened: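 PC-9 cells (EGFR del746-750) in phenol-free DMEM/10% FBS, adhered overnight, then exposed to 10-point 4-fold compound dilutions for 4 h at 37 °C. Lysates assayed for pEGFR Tyr1068 by AlphaLISA SureFire Ultra; IC50 from percent pEGFR inhibition vs log concentration.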

EGFR L858R = target: T2, EGFR L858R (Homo sapiens, UniProt P00533, L858R); assay: Biochemical EGFR inhibition assay (Caliper mobility shift), EGFR L858R; details: biochemical Caliper mobility shift assay, EGFR L858R enzyme; read-out: Enz EGFR L858R IC50
T2 construct: purchased SignalChem E10-122BG
T2 sequence (P00533 25-1210 L858R): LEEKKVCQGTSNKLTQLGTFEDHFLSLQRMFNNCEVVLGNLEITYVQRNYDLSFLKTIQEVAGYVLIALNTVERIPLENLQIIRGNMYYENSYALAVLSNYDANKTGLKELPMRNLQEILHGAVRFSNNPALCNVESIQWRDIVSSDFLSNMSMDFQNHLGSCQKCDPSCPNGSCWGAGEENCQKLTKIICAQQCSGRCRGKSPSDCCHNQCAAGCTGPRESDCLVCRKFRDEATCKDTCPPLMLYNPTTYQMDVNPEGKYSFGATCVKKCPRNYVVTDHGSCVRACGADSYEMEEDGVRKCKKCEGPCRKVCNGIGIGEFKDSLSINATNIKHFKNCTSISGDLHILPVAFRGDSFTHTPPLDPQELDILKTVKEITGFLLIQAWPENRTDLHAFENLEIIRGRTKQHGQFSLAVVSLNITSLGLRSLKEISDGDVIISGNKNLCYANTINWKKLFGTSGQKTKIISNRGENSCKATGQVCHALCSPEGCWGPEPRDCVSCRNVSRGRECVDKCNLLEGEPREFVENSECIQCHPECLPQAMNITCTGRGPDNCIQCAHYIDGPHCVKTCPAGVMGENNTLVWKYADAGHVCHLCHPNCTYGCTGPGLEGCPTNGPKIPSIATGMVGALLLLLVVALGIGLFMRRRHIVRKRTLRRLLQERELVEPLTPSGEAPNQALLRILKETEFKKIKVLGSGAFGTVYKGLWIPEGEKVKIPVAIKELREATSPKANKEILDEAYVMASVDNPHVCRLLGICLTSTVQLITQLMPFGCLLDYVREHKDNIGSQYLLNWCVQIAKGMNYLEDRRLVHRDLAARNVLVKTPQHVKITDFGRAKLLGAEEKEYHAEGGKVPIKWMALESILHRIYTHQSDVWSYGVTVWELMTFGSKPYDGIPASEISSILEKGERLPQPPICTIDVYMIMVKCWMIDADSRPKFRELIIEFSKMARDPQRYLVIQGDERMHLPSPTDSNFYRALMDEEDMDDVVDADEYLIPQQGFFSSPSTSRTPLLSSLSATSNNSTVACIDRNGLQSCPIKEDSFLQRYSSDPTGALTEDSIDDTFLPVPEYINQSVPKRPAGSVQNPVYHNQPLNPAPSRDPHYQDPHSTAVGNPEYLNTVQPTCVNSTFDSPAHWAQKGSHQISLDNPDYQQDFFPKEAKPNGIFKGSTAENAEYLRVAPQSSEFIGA
Procedure, shortened: as §1

T1 sequence (P00533 with tags, fused parts or gaps DEL746-750 limits assumed): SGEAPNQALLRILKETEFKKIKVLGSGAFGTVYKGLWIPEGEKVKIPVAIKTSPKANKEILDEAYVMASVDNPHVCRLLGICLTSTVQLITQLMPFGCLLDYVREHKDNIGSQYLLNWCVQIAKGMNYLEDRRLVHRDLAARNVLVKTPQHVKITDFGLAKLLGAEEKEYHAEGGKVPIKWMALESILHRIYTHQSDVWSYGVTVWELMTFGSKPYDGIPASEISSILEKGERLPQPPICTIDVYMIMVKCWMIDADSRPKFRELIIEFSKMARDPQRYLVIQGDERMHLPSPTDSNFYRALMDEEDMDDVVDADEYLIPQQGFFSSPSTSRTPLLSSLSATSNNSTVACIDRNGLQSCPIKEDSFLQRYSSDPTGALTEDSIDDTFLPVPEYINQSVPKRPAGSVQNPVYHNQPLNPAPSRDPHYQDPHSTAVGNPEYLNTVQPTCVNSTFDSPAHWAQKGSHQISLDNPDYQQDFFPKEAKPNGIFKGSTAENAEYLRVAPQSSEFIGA

C[C@H](Oc1cc(N2CCN(C)C2=O)cc2ncnc(Nc3ccc4ncsc4c3)c12)C1COC1 (single isomer, unassigned) [Example 157]
IC50 (EGFR (d746-750)): ≤ 10 nM | IC50 [1]: ≤ 10 nM | IC50 (EGFR L858R): ≤ 10 nM

C[C@@H](Oc1cc(N2CCN(C)[C@@H](C)C2)cc2ncnc(Nc3ccc4ncsc4c3F)c12)C1COC1 (single isomer, unassigned) [Example 98]
IC50 (EGFR (d746-750)): ≤ 10 nM | IC50 [1]: 10.1 to 50 nM | IC50 (EGFR L858R): ≤ 10 nM

C[C@H](Oc1cc(-c2cnn(C)c2)cc2ncnc(Nc3ccc4ncsc4c3F)c12)C1CCOC1 (stereo partly drawn) [Example 90, 7-fluoro-N-(7-(1-methyl-1H-pyrazol-4-yl)-5-((1S)-1-(tetrahydrofuran-3-yl)ethoxy)quinazolin-4-yl)benzo[d]thiazol-6-amine]
IC50 (EGFR (d746-750)): ≤ 10 nM | IC50 [1]: 10.1 to 50 nM | IC50 (EGFR L858R): ≤ 10 nM

C[C@@H](Oc1cc(-c2cnn(C)c2)cc2ncnc(Nc3ccc4ncsc4c3F)c12)C1CN(C)C1 (single isomer, unassigned) [Example 388]
IC50 (EGFR (d746-750)): 10.1 to 50 nM | IC50 [1]: > 50.1 nM | IC50 (EGFR L858R): > 50.1 nM

CN(C)C[C@H](Oc1cc(-c2cnn(C)c2)cc2ncnc(Nc3ccc4ncsc4c3)c12)C(F)(F)F (single isomer, unassigned) [Example 178]
IC50 (EGFR (d746-750)): ≤ 10 nM | IC50 [1]: ≤ 10 nM | IC50 (EGFR L858R): ≤ 10 nM

Cc1cn(-c2cc(OC(C)CN(C)C)c3c(Nc4ccc5ncsc5c4)ncnc3c2)c(=O)n1C (stereo not drawn) [Example 203, 1-(4-(benzo[d]thiazol-6-ylamino)-5-((1-(dimethylamino)propan-2-yl)oxy)quinazolin-7-yl)-3,4-dimethyl-1,3-dihydro-2H-imidazol-2-one]
IC50 (EGFR (d746-750)): ≤ 10 nM | IC50 [1]: 10.1 to 50 nM | IC50 (EGFR L858R): 10.1 to 50 nM

COC[C@@H](C)Oc1cc(-c2cnn(C)c2)cc2ncnc(Nc3ccc4ncsc4c3F)c12 [Example 91, (R)-7-fluoro-N-(5-((1-methoxypropan-2-yl)oxy)-7-(1-methyl-1H-pyrazol-4-yl)quinazolin-4-yl)benzo[d]thiazol-6-amine]
IC50 (EGFR (d746-750)): ≤ 10 nM | IC50 [1]: ≤ 10 nM | IC50 (EGFR L858R): ≤ 10 nM

Cn1cc(-c2cc(OC(C)(C)C(=O)N3CCOCC3)c3c(Nc4ccc5ncsc5c4)ncnc3c2)cn1 [Example 286, 2-((4-(benzo[d]thiazol-6-ylamino)-7-(1-methyl-1H-pyrazol-4-yl)quinazolin-5-yl)oxy)-2-methyl-1-morpholinopropan-1-one]
IC50 (EGFR (d746-750)): ≤ 10 nM | IC50 [1]: 10.1 to 50 nM | IC50 (EGFR L858R): 10.1 to 50 nM

COCCN1CCC(Oc2cc(-c3nn(C)cc3OC)cc3ncnc(Nc4ccc5ncsc5c4)c23)CC1 [Example 308, N-(7-(4-methoxy-1-methyl-1H-pyrazol-3-yl)-5-((1-(2-methoxyethyl)piperidin-4-yl)oxy)quinazolin-4-yl)benzo[d]thiazol-6-amine]
IC50 (EGFR (d746-750)): ≤ 10 nM | IC50 [1]: 10.1 to 50 nM | IC50 (EGFR L858R): 10.1 to 50 nM

COC[C@@H](C)Oc1cc(-n2cc(C(C)(C)O)cn2)cc2ncnc(Nc3ccc4ncsc4c3F)c12 [Example A26, (R)-2-(1-(4-((7-fluorobenzo[d]thiazol-6-yl)amino)-5-((1-methoxypropan-2-yl)oxy)quinazolin-7-yl)-1H-pyrazol-4-yl)propan-2-ol]
IC50 (EGFR (d746-750)): ≤ 10 nM | IC50 [1]: ≤ 10 nM | IC50 (EGFR L858R): ≤ 10 nM

Cn1cc(-c2cc(OCC(=O)N3CC4(COC4)C3)c3c(Nc4ccc5ncsc5c4F)ncnc3c2)cn1 [Example 277, 2-((4-((7-fluorobenzo[d]thiazol-6-yl)amino)-7-(1-methyl-1H-pyrazol-4-yl)quinazolin-5-yl)oxy)-1-(2-oxa-6-azaspiro[3.3]heptan-6-yl)ethan-1-one]
IC50 (EGFR (d746-750)): ≤ 10 nM | IC50 [1]: ≤ 10 nM | IC50 (EGFR L858R): ≤ 10 nM

COC[C@@H](C)Oc1cc(N2CCN(C)C[C@H]2C)cc2ncnc(Nc3ccc4ncsc4c3)c12 (single isomer, unassigned) [Example 211]
IC50 (EGFR (d746-750)): 10.1 to 50 nM | IC50 [1]: > 50.1 nM | IC50 (EGFR L858R): > 50.1 nM

CC(Oc1cc(N2CCN(C)C3CC32)cc2ncnc(Nc3ccc4ncsc4c3)c12)C1COC1 [Example 300, N-(7-((1R,6S)-5-methyl-2,5-diazabicyclo[4.1.0]heptan-2-yl)-5-((R)-1-(oxetan-3-yl)ethoxy)quinazolin-4-yl)benzo[d]thiazol-6-amine, OR N-(7-((1S,6R)-5-methyl-2,5-diazabicyclo[4.1.0]heptan-2-yl)-5-((R)-1-(oxetan-3-yl)ethoxy)quinazolin-4-yl)benzo[d]thiazol-6-amine]
IC50 (EGFR (d746-750)): ≤ 10 nM | IC50 [1]: ≤ 10 nM | IC50 (EGFR L858R): 10.1 to 50 nM

COc1cn(C)nc1-c1cc(O[C@H](C)C2COC2)c2c(Nc3ccc4ncsc4c3)ncnc2c1 (single isomer, unassigned) [Example 121]
IC50 (EGFR (d746-750)): ≤ 10 nM | IC50 [1]: 10.1 to 50 nM | IC50 (EGFR L858R): ≤ 10 nM

COc1nn(C)cc1-c1cc(OC2CCN(C)CC2)c2c(Nc3ccc4ncsc4c3F)ncnc2c1 [Example 320, 7-fluoro-N-(7-(3-methoxy-1-methyl-1H-pyrazol-4-yl)-5-((1-methylpiperidin-4-yl)oxy)quinazolin-4-yl)benzo[d]thiazol-6-amine]
IC50 (EGFR (d746-750)): ≤ 10 nM | IC50 [1]: 10.1 to 50 nM | IC50 (EGFR L858R): ≤ 10 nM

C[C@@H]1CN(c2cc(O[C@H](C)C3COC3)c3c(Nc4ccc5ncsc5c4F)ncnc3c2)CCN1C (single isomer, unassigned) [Example 102]
IC50 (EGFR (d746-750)): ≤ 10 nM | IC50 [1]: ≤ 10 nM | IC50 (EGFR L858R): ≤ 10 nM

C[C@@H](CN(C)C)Oc1cc(N2CCN(C)CC2)cc2ncnc(Nc3ccc4ncsc4c3)c12 (single isomer, unassigned) [Example 116]
IC50 (EGFR (d746-750)): 10.1 to 50 nM | IC50 [1]: > 50.1 nM | IC50 (EGFR L858R): > 50.1 nM

CN1CCC(Oc2cc(-c3cnn(C)c3)cc3ncnc(Nc4ccc5ncsc5c4)c23)C(F)(F)C1 (stereo not drawn) [Example 2, N-(5-((3,3-difluoro-1-methylpiperidin-4-yl)oxy)-7-(1-methyl-1H-pyrazol-4-yl)quinazolin-4-yl)benzo[d]thiazol-6-amine]
IC50 (EGFR (d746-750)): ≤ 10 nM | IC50 [1]: ≤ 10 nM | IC50 (EGFR L858R): ≤ 10 nM

C[C@H](Oc1cc(-c2cnn(C)c2)cc2ncnc(Nc3ccc4ncsc4c3)c12)C(=O)N1CCOCC1 [Example 284, (S)-2-((4-(benzo[d]thiazol-6-ylamino)-7-(1-methyl-1H-pyrazol-4-yl)quinazolin-5-yl)oxy)-1-morpholinopropan-1-one]
IC50 (EGFR (d746-750)): ≤ 10 nM | IC50 [1]: ≤ 10 nM | IC50 (EGFR L858R): ≤ 10 nM

Cn1cc(-c2cc(OC3COC3)c3c(Nc4ccc5ncsc5c4)ncnc3c2)cn1 [Example 406, N-(7-(1-methyl-1H-pyrazol-4-yl)-5-(oxetan-3-yloxy)quinazolin-4-yl)benzo[d]thiazol-6-amine]
IC50 (EGFR (d746-750)): ≤ 10 nM | IC50 [1]: ≤ 10 nM | IC50 (EGFR L858R): ≤ 10 nM

CCC(=O)N1CCC(Nc2cc3c(Nc4ccc5ncsc5c4)ncnc3cc2-c2ccn(C)n2)CC1 [Example 257, 1-(4-((4-(benzo[d]thiazol-6-ylamino)-7-(1-methyl-1H-pyrazol-3-yl)quinazolin-6-yl)amino)piperidin-1-yl)propan-1-one]
IC50 (EGFR (d746-750)): ≤ 10 nM | IC50 [1]: ≤ 10 nM | IC50 (EGFR L858R): ≤ 10 nM

COc1cc(-c2cnn(C)c2)cc2ncnc(Nc3ccc4ncsc4c3F)c12 [Example 3, 7-fluoro-N-(5-methoxy-7-(1-methyl-1H-pyrazol-4-yl)quinazolin-4-yl)benzo[d]thiazol-6-amine]
IC50 (EGFR (d746-750)): ≤ 10 nM | IC50 [1]: 10.1 to 50 nM | IC50 (EGFR L858R): ≤ 10 nM
